According to ChEMBL document CHEMBL3351436, “Structure-activity studies of (-)-epigallocatechin gallate derivatives as HCV entry inhibitors” (Bioorg Med Chem Lett, 2014):
Activity calls are given as the source filed them. The calls are words filed in the database; no cut-off is given here.

Experiments:
Hepatitis C virus [1] = test: Antiviral activity against HCV genotype 1a assessed as inhibition of viral entry into Huh7 cells treated at 50 uM for 2 hr followed by 28 hrs incubation period in compound-free medium by immunofluorescence assay; type: functional, cell-based; settings: Hepacivirus hominis, subtype 1a, Huh-7
Hepatitis C virus [2] = test: Antiviral activity against HCV genotype 1a assessed as inhibition of viral entry into Huh7 cells treated for 2 hr followed by 28 hrs incubation period in compound-free medium by immunofluorescence assay; type: functional, cell-based, Hepacivirus hominis; settings: subtype 1a, Huh-7
[3] = Cytotoxicity against human HuH7 cells assessed as reduction cell viability up to 1 mM after 48 to 72 hrs by MTS assay; type: cell-based; settings: huh-7

| Structure (SMILES) | inhibition (Hepatitis C virus [1]) | IC50 (Hepatitis C virus [2]) [µM] | Activity [3] |
| --- | --- | --- | --- |
| O=C(O[C@@H]1Cc2c(O)cc(O)cc2O[C@@H]1c1cc(O)c(O)c(O)c1)c1cc(O)c(O)c(O)c1 [EPIGALOCATECHIN GALLATE] | Active | 20 | – |
| O=C(O[C@@H]1Cc2c(O)cc(O)cc2O[C@@H]1c1cc(O)c(O)c(O)c1)c1ccccc1 | Active | 27 | Non-toxic |
| O=C(O[C@@H]1Cc2c(O)cc(O)cc2O[C@@H]1c1cc(O)c(O)c(O)c1)c1ccc(F)c(F)c1 | Active | 6.9 | Non-toxic |
| O=C(O[C@@H]1Cc2c(O)cc(O)cc2O[C@H]1c1cc(O)c(O)c(O)c1)c1cc(O)c(O)c(O)c1 | Active | – | – |
| O=C(O[C@H]1Cc2c(O)cc(O)cc2O[C@@H]1c1ccccc1)c1cc(O)c(O)c(O)c1 (racemic) | inactive | – | – |
| O=C(O[C@@H]1Cc2ccccc2O[C@@H]1c1ccccc1)c1cc(O)c(O)c(O)c1 (racemic) | inactive | – | – |
| CC1Oc2ccc(C#N)cc2C=C1C(=O)N[C@H]1CC[C@@H](N)CC1 (some centres undefined) | inactive | – | – |
| O=C(O[C@@H]1Cc2c(O)cc(O)cc2O[C@@H]1c1cc(O)c(O)c(O)c1)c1ccncc1 | inactive | – | – |
| CC1Oc2ccc(C#N)cc2C=C1C(=O)NC1CCNCC1 (centres undefined) | inactive | – | – |
